# Experimental data taken from paper PMC12198407, “Preclinical and first-in-human of purinostat mesylate, a novel selective HDAC I/IIb inhibitor, in relapsed/refractory multiple myeloma and lymphoma” (Signal Transduction and Targeted Therapy, 2025).
# Like-named read-outs stand apart in the source and are kept apart here.
# Legend:
# HDAC10 = HDAC10 (Homo sapiens, UniProt Q969S8); test: HDAC enzyme activity in vitro; assay type: biochemical
# MM1S xenograft = MM1S xenograft mouse model; assay type: in vivo, NOD-SCID mice; details: for median survival time: satellite group, death = tumor 1500 mm³
# clinical = assay type: in vivo, human
# Protocol: To analyze the pharmacokinetics (PK) of PM, serial blood samples were collected at pre-dose and at 5 minutes, 10 minutes, 20 minutes, 30 minutes, 32 minutes, 35 minutes, 45 minutes, 1 hour, 2 hours, 4 hours, 8 hours, and 12 hours post-dose on day 1. During the multiple dosing phase, blood samples were collected at pre-dose on day 15, and 5 minutes, 10 minutes, 20 minutes, 30 minutes, 32 minutes, 35 minutes, 45 minutes, 1 hour, 2 hours, 4 hours, 8 hours, and 12 hours post-dose on day 15. PM plasma concentrations were determined using ultra performance liquid chromatography (UPLC) coupled with tandem mass spectrometry (MS-MS) detection. Pharmacokinetic parameters, including Tmax, Cmax, AUC0-t, AUC0-∞, t1/2, MRT, CL, Ke, and V, were calculated using the non-compartmental analysis (NCA) method with the professional pharmacokinetic software Phoenix WinNonlin (Version 8.1). Dose proportionality was assessed in single-dose experiments, while drug accumulation was evaluated in multiple-dose experiments.
# [1] = system: BCR-ABL positive B-ALL PDX; test: PDX model of clinical B-ALL patient; assay type: in vivo, NOD/SCID mice
# Description: A clinical sample from a B-ALL patient was obtained, characterized by BCR-ABL positivity and relapse after first-line treatment.
# [2] = Systemic active allergic test; assay type: in vivo, guinea pigs; details: 0.204 and 0.612 mg/mL
# Protocol: This experiment included a negative control group, a positive control group, a blank formulation group of injectable Purinostat Mesylate, and low and high dose groups of injectable Purinostat Mesylate, with 6 British guinea pigs in each group, evenly divided by sex. During the sensitization phase, the low and high dose groups received intravenous injections of 0.204 mg/mL and 0.612 mg/mL of injectable Purinostat Mesylate (1 and 3 times the maximum intended clinical concentration, respectively) at a volume of 0.5 mL per guinea pig. The blank formulation group received intravenous injections of the excipient in the same volume as the high dose group. The negative control group received an equal volume of 0.9% sodium chloride injection, while the positive control group received an intraperitoneal injection of 4 mg of ovalbumin solution per guinea pig. Sensitization was performed once every other day for a total of 3 consecutive sensitizations. On days 14 and 21 after the last sensitization, each group received an intravenous injection of 2 times the sensitizing dose to provoke an allergic response. Reactions and mortality were observed 30 minutes after the provocation injection.
# [3] = Intravenous vascular irritation test; assay type: in vivo, rabbits; details: 0.204 mg/mL, 10 mL/kg, 5 days
# Protocol: This experiment included a blank formulation group of injectable Purinostat Mesylate and an injectable Purinostat Mesylate group, with 8 Japanese White Rabbits in each group, evenly divided by sex. The injectable Purinostat Mesylate group received an intravenous infusion of 0.204 mg/mL (the maximum intended clinical concentration) at a volume of 10 mL/kg via the right ear marginal vein. The blank formulation group received an intravenous infusion of hydroxypropyl beta-cyclodextrin at the same dose as the injectable Purinostat Mesylate group. Each rabbit in both groups also received an equal volume of 0.9% sodium chloride injection via the left ear marginal vein as a self-control. The administration was performed once daily for a total of 5 consecutive days, with the first day of administration defined as Day 1 of the experiment. During the study, the general condition of the rabbits and the injection site were monitored daily. Approximately 72 hours and 16 days after administration, 4 rabbits from each group were euthanized for gross anatomical observation of the injection site, and blood vessels and surrounding tissues from the injection site were collected for histopathological examination.
# [4] = Pharmacokinetics and tissue distribution in Ighmyc mice; assay type: in vivo
# Description: In B cell-related tumors, the mechanism of disease often involves the translocation of the MYC oncogene to the immunoglobulin promoter region, leading to its hyperactivation. The translocation of the MYC gene to the IGH enhancer (t(8;14) (q24;q32)) is a molecular hallmark of Burkitt lymphoma. The Ighmyc (Eμ-myc) mouse model successfully mimics this pathogenic mechanism by translocating the MYC oncogene to the immunoglobulin μ enhancer. […] We isolated bone marrow and enlarged spleen from diseased Ighmyc mice and transplanted them into normal C57 mice via tail vein injection to induce a primary B cell lymphoma model. This study aims to investigate the pharmacokinetic characteristics and tissue distribution of Purinostat Mesylate in plasma and target organs in the context of primary B cell lymphoma.
# The mean residence times (MRT) were 6.00 ± 1.00 h, 24.8 ± 1.03 h, and 23.4 ± 3.59 h, respectively. […] However, in Ighmyc mice, the plasma drug concentration after the same duration was 7.11 ± 3.15 ng/mL. […] The pharmacokinetic characteristics support the notion that spaced dosing of the drug can still maintain favorable pharmacodynamic outcomes.
# CYP1A2 [5] = biological target: T1, CYP1A2 (Homo sapiens, UniProt P05177); test: CYP inhibition, human liver microsomes; assay type: in vitro ADME
# T1 construct: human liver microsomal cytochrome P450 isoenzymes; from tissue; host or cells: human liver microsomes
# CYP2D6 = biological target: T2, CYP2D6 (Homo sapiens, UniProt P10635); test: CYP inhibition, human liver microsomes; assay type: in vitro ADME
# T2 construct: human liver microsomal cytochrome P450 isoenzymes; from tissue; host or cells: human liver microsomes
# CYP1A2 [6] = test: CYP induction, cryopreserved human liver cells; assay type: in vitro ADME; details: 0.0500, 0.500, 5.00 µM; three donors
# CYP3A4 = test: CYP induction, cryopreserved human liver cells; assay type: in vitro ADME; details: 0.0500, 0.500, 5.00 µM; three donors
# HDAC I/IIb = system: HDAC I/IIb; design: method as in PMID 27186676, PMID 31439580; details: range over isoforms; read-out: IC50 against HDAC I/IIb; cited from earlier work
# T2 sequence (P10635 whole entry): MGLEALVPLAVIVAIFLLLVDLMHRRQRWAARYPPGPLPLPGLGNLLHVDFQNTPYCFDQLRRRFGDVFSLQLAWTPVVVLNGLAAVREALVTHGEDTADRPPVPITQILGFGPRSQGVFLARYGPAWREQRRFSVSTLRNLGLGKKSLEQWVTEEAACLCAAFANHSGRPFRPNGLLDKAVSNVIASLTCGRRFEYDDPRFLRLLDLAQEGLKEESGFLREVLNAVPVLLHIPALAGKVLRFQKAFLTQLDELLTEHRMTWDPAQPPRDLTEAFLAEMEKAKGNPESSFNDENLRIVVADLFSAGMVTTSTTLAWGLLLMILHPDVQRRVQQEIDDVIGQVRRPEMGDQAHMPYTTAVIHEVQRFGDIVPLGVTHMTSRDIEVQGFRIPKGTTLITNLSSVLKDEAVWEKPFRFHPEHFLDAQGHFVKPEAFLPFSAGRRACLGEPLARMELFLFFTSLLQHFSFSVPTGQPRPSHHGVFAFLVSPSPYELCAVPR
# T1 sequence (P05177 whole entry): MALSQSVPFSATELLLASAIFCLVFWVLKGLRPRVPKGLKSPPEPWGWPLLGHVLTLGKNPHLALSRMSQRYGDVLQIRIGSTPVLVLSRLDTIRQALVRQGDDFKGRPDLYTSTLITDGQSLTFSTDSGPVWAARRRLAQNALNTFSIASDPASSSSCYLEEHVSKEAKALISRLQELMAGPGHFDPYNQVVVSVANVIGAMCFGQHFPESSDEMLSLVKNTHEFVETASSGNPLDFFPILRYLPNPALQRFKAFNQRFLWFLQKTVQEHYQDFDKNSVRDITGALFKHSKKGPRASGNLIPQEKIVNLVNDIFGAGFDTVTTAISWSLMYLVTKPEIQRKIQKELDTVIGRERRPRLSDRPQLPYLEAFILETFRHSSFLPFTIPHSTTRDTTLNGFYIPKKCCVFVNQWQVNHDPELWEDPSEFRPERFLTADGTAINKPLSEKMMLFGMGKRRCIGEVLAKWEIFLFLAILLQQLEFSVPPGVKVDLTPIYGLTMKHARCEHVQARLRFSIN
# Chain of HDAC10 (Q969S8 whole entry): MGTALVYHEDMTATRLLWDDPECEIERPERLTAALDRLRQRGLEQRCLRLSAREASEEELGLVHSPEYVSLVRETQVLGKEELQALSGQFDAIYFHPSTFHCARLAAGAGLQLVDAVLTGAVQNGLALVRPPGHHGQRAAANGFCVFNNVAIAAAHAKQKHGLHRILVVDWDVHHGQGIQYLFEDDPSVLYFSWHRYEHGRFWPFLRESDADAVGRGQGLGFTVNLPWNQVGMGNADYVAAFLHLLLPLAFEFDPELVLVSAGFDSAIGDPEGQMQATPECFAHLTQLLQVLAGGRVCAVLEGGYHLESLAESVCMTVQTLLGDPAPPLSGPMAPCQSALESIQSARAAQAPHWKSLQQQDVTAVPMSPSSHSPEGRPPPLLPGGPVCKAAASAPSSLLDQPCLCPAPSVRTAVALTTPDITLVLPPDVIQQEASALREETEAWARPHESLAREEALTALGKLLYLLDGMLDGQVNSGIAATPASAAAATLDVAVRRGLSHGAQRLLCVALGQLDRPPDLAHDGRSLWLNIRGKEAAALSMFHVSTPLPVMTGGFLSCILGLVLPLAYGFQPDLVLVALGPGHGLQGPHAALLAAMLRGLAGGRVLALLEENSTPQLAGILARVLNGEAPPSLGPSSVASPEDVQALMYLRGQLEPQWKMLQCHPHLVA
structure (smiles),measurement,setting,value
"CN(Cc1nc2c(N3CCOCC3)nc(-c3ccc(N)cc3)nc2n1C)c1ncc(C(=O)NO)cn1.CS(=O)(=O)O [PM, 2-(((2-(4-Aminophenyl)-9-methyl-6-(4-morpholinyl)-9H-purine-8-yl)methyl)methylamino)-N-hydroxy-5-pyrimidine-carboxamide Mesylate]",IC50,HDAC10,1.1 nM
same,relative tumor growth rate T/C,MM1S xenograft; 2.5 mg/kg,49.9%
same,tumor inhibition rate,MM1S xenograft; 2.5 mg/kg i.v. three times a week,55.67%
same,relative tumor growth rate T/C,MM1S xenograft; 5 mg/kg,32.0%
same,tumor inhibition rate,MM1S xenograft; 5 mg/kg i.v. three times a week,64.39%
same,relative tumor growth rate T/C,MM1S xenograft; 10 mg/kg,21.8%
same,tumor inhibition rate,MM1S xenograft; 10 mg/kg i.v. three times a week,71.76%
same,relative tumor growth rate T/C,MM1S xenograft; 20 mg/kg,18.3%
same,tumor inhibition rate,MM1S xenograft; 20 mg/kg i.v. three times a week,76.44%
same,median survival time,MM1S xenograft; 5 mg/kg,29.0 days
same,median survival time,MM1S xenograft; 10 mg/kg,34.5 days
same,accumulation index for AUC0–∞ (multiple doses/single dose),clinical; 1.2 to 15.0 mg/m^2,0.97–1.17
same,accumulation index for Cmax (multiple doses/single dose),clinical; 1.2 to 15.0 mg/m^2,0.96 to 1.32
same,half-life,"clinical; human, plasma, iv, single (Day 1) intravenous, range over doses, read-out: half-life (t1/2)",138 to 211 min
same,median survival time,"[1]; 2.5 mg/kg, solvent control 21 days",66 days
same,median survival time,[1]; 10 mg/kg,73 days
same,systemic active allergic test outcome,[2],negative
same,irritation at the injection site,[3],did not cause irritation at the injection site
same,abnormal B220+/IgM- cell population in peripheral blood,"[4]; 48 hours after single i.v. 5 mg/kg, untreated 48.9%",about 18.8%
same,AUC(0-t),"[4]; Ighmyc (Eμ-myc), mouse, lymph node, iv, single i.v. 5 mg/kg, read-out: lymph node AUC(0-72h)",16100 ± 2040 ng·h/mL
same,Cmax,"[4]; Ighmyc (Eμ-myc), mouse, lymph nodes, iv, single i.v. 5 mg/kg, read-out: Cmax in lymph nodes",578 ± 153 ng/mL
same,MRT,"[4]; Ighmyc (Eμ-myc), mouse, lymph nodes, iv, single i.v. 5 mg/kg, read-out: MRT in lymph nodes",23.4 ± 3.59 h
same,half-life,"[4]; Ighmyc (Eμ-myc), mouse, lymph nodes, iv, single i.v. 5 mg/kg, read-out: T1/2 in lymph nodes (converted)",1310 ± 612 min
same,concentration at 48 h,"[4]; Ighmyc (Eμ-myc), mouse, lymph nodes, iv, single i.v. 5 mg/kg, read-out: concentration in lymph nodes at 48 hours",178 ± 46 ng/mL
same,Cmax,"[4]; Ighmyc (Eμ-myc), mouse, plasma, iv, single i.v. 5 mg/kg, read-out: Cmax in plasma",304 ± 277 ng/mL
same,MRT,"[4]; Ighmyc (Eμ-myc), mouse, plasma, iv, single i.v. 5 mg/kg, read-out: MRT in plasma",6 ± 1 h
same,half-life,"[4]; Ighmyc (Eμ-myc), mouse, plasma, iv, single i.v. 5 mg/kg, read-out: T1/2 in plasma (converted)",732 ± 126 min
same,AUC(0-t),"[4]; Ighmyc (Eμ-myc), mouse, plasma, iv, single i.v. 5 mg/kg, read-out: plasma AUC(0-48h)",875 ± 437 ng·h/mL
same,concentration at 24 h,"[4]; Ighmyc (Eμ-myc), mouse, plasma, iv, single i.v. 5 mg/kg, read-out: plasma drug concentration at 24 hours",7.11 ± 3.15 ng/mL
same,Cmax,"[4]; Ighmyc (Eμ-myc), mouse, spleen, iv, single i.v. 5 mg/kg, read-out: Cmax in spleen",410 ± 69.9 ng/mL
same,MRT,"[4]; Ighmyc (Eμ-myc), mouse, spleen, iv, single i.v. 5 mg/kg, read-out: MRT in spleen",24.8 ± 1.03 h
same,half-life,"[4]; Ighmyc (Eμ-myc), mouse, spleen, iv, single i.v. 5 mg/kg, read-out: T1/2 in spleen (converted)",1250 ± 476 min
same,concentration at 48 h,"[4]; Ighmyc (Eμ-myc), mouse, spleen, iv, single i.v. 5 mg/kg, read-out: concentration in spleen at 48 hours",134 ± 18.5 ng/mL
same,AUC(0-t),"[4]; Ighmyc (Eμ-myc), mouse, spleen, iv, single i.v. 5 mg/kg, read-out: spleen AUC(0-72h)",12500 ± 244 ng·h/mL
same,plasma drug concentration at 24 hours,"[4]; single i.v. 5 mg/kg, listed as Purinostat Mesylate, 5 mg/kg",7.11 ng/mL
same,IC50,CYP1A2 [5],> 10 µM
same,IC50,CYP2D6,> 10 µM
same,induction of CYP1A2,CYP1A2 [6],did not act as an inducer
same,induction of CYP3A4,CYP3A4,did not act as an inducer
same,IC50,HDAC I/IIb,0.81 to 11.5 nM
